pIC50: −log10 of the molar value.

Assay [1] has as its target kinase IRAK4 (Homo sapiens (Human), UniProt Q9NWZ3). Put plainly: Inhibitory effects of compounds on kinase activity (fluorescence microfluidic mobility detection, competitive with ATP). The settings on record: Table 2; IRAK4 6 nM, ATP 10 μM, substrate FAM-P8 3 μM. Format: biochemical. The procedure, abridged:
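Human IRAK4 (6 nM final) in HEPES pH 7.5 buffer with MgCl2, DTT and Brij-35 was preincubated with compound (10 μM top, 4-fold dilutions to 0.38 nM, duplicate) for 10 min at room temperature. Reaction with FAM-P8 peptide (3 μM) and ATP (10 μM) ran 1 h at 28° C., then EDTA-stopped. Conversion read by microfluidic mobility shift; IC50 by four-parameter fit.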

Assay [2] has as its target IRAK4 protein in THP-1 cells (Homo sapiens (Human), UniProt Q9NWZ3). Description: PROTAC-induced IRAK4 protein degradation in THP-1 cells (Western Blot). Type of assay: cell-based. The conditions noted are these: concentration that degraded 50% of IRAK4, Western blotting, 24 hours after administration. The procedure, abridged: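 THP-1 cells treated with compound at 0.3, 1 or 3 µM for 8–48 h at 37 °C. IRAK4 levels in cell lysates assessed by Western blot with anti-IRAK4 antibody, normalised to GAPDH.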
A general note: In western blotting, separated proteins are transferred to a membrane and probed.

kinase IRAK4, sequence (Q9NWZ3 whole entry): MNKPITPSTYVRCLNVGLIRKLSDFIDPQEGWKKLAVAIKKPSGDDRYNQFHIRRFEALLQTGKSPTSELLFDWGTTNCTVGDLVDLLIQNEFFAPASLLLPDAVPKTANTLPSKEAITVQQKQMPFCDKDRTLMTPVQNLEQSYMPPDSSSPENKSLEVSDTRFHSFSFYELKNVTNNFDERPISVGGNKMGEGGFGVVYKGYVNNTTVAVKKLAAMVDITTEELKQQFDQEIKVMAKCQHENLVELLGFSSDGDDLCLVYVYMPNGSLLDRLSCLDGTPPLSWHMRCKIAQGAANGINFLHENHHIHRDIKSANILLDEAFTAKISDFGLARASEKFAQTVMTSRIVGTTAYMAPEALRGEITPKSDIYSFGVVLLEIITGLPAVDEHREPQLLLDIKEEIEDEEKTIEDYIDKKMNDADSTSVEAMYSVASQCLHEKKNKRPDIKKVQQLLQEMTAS
IRAK4 protein in THP-1 cells, sequence (Q9NWZ3 whole entry): as above

Consider `COc1cc2nn(C3CC4(CCN(C(=O)C5(C)CCN(c6ccc7c(c6)C(=O)N(C6CCC(=O)NC6=O)C7=O)CC5)CC4)C3)cc2cc1NC(=O)c1cccc(C(F)(F)F)n1` (stereo not shown) [Compound I-37], for which the negative-log IC50 (pIC50) (as a rule, the negative decadic logarithm of the IC50, by convention in mol/L) in assay [1] was 7.52. Besides, the 50% degradation concentration (DC50) (in general, the concentration giving 50% degradation) in assay [2] was determined as 20.7 nM.

Regarding `COc1cc2nn(C3CCC4(CC3)CCN(C(=O)C3CCN(c5ccc6c(c5)C(=O)N(C5CCC(=O)NC5=O)C6=O)CC3)CC4)cc2cc1NC(=O)c1cccc(C(F)(F)F)n1` (stereo not shown) [Compound I-27], the pIC50 in assay [1] is 7.38. In assay [2], this compound yielded a DC50 of 6.9 nM.

These data come from patent US20240423977A1, “FIVE-MEMBERED RING-FUSED SIX-MEMBERED RING COMPOUND, PREPARATION METHOD THEREFOR, AND PHARMACEUTICAL COMPOSITION AND USE THEREOF” (HANGZHOU POLYMED BIOPHARMACEUTICALS, INC., priority 2022, published 2024).
